According to ChEMBL document CHEMBL4706588, “Rational design and biological evaluation of a new class of thiazolopyridyl tetrahydroacridines as cholinesterase and GSK-3 dual inhibitors for Alzheimer's disease” (Eur J Med Chem, 2020):
Activity calls are given as the source filed them. The rule behind the calls is not given here.

Tests used:
Homo sapiens [1] = species on record: Homo sapiens; test: Selectivity for GSK3 (unknown origin) over JNK3 (unknown origin)
[2] = target: Glycogen synthase kinase-3 alpha (Homo sapiens) (UniProt P49840); test: Inhibition of GSK-3alpha (unknown origin) at 300 nM relative to control
[3] = target: Mitogen-activated protein kinase 13 (Homo sapiens) (UniProt O15264); test: Inhibition of P38delta (unknown origin) at 300 nM relative to control
[4] = target: Glycogen synthase kinase-3 beta (Mus musculus) (UniProt Q9WV60); test: Inhibition of GSK3beta in mouse N2a cells overexpressing human tau protein assessed as phosphorylated tau Ser396 residue level at 10 uM incubated for 1 hr followed by okadaid-acid addition and measured after 5 hrs by Western blot analysis relative to control; assay type: cell-based; parameters: scale not given: the % may be the effect or the level left; settings: time 6.0 hrs
[5] = target: Cyclin-dependent kinase 4 (Homo sapiens) (UniProt P11802); test: Inhibition of CDK4 (unknown origin) at 300 nM relative to control
[6] = target: Glycogen synthase kinase-3 beta (Mus musculus) (UniProt Q9WV60); test: Inhibition of GSK3beta in mouse N2a cells overexpressing human tau protein assessed as reduction in tau Ser396 residue phosphorylation at 5 uM incubated for 1 hr followed by okadaid-acid addition and measured after 5 hrs by Western blot analysis relative to control; assay type: cell-based; settings: time 6.0 hrs
[7] = target: Mitogen-activated protein kinase 12 (Homo sapiens) (UniProt P53778); test: Inhibition of P38gamma (unknown origin) at 300 nM relative to control
Homo sapiens [8] = species on record: Homo sapiens; test: Selectivity for GSK3 (unknown origin) over ERK2 (unknown origin)
Homo sapiens [9] = species on record: Homo sapiens; test: Selectivity for GSK3 (unknown origin) over MAPK p38 alpha (unknown origin)
[10] = Effect on swimming speed in ICR mouse model of scopolamine-induced memory impairment at 15 mg/kg, po administered 30 mins prior to scopolamine injection by Morris water maze test; assay type: ADME, organism-based; settings: in vivo, 0.5 h
Mus musculus = test: Cognitive enhancing effect in ICR mouse model of scopolamine-induced memory impairment assessed as improvement in trajectories to platform at 15 mg/kg, po administered 30 mins prior to scopolamine injection by Morris water maze test; assay type: functional, organism-based
Homo sapiens [11] = species on record: Homo sapiens; test: Selectivity for GSK3 (unknown origin) over CDK6 (unknown origin)
Homo sapiens [12] = species on record: Homo sapiens; test: Selectivity for GSK3 (unknown origin) over CDK7 (unknown origin)
[13] = target: T1, Dual specificity tyrosine-phosphorylation-regulated kinase 1A (Homo sapiens, UniProt Q13627); test: Inhibition of DYRK1alpha (unknown origin) at 300 nM relative to control
[14] = target: T1, Dual specificity tyrosine-phosphorylation-regulated kinase 1A; test: Inhibition of DYRK1alpha (unknown origin)
in vitro = settings: PAMPA
Description: Effective permeability of compound at 100 ug/ml incubated for 20 hrs by PAMPA-BBB assay

[15] = target: Mitogen-activated protein kinase 3 (Homo sapiens) (UniProt P27361); test: Inhibition of ERK1 (unknown origin) at 300 nM relative to control
[16] = target: T2, Glycogen synthase kinase-3 beta (Homo sapiens, UniProt P49841); test: Inhibition of GSK-3beta (unknown origin) at 300 nM relative to control
Target sequence in this assay (P49841 whole entry, looked up): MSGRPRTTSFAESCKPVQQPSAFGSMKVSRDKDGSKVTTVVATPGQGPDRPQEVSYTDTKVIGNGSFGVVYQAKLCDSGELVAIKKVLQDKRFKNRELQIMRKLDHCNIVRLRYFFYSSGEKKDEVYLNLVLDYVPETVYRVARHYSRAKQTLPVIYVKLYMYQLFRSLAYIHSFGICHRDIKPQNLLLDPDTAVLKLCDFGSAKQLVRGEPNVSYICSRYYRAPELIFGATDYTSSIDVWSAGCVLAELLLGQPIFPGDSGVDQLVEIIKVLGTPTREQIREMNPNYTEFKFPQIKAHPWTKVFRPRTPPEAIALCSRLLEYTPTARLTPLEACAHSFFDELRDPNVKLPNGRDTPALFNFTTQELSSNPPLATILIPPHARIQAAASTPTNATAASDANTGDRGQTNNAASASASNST

[17] = Effect on cell morphology in LPS-treated mouse BV-2 cells at 5 uM pretreated for 1 hr followed by incubation with LPS for 24 hrs by fluorescence microscopic analysis; assay type: ADME; settings: bv-2, 25 h
[18] = target: Mitogen-activated protein kinase 14 (Homo sapiens) (UniProt Q16539); test: Inhibition of P38alpha (unknown origin) at 300 nM relative to control
Homo sapiens [19] = species on record: Homo sapiens; test: Selectivity for GSK3 (unknown origin) over MAPK p38 gamma (unknown origin)
[20] = target: T3, Dual specificity tyrosine-phosphorylation-regulated kinase 1B (Homo sapiens, UniProt Q9Y463); test: Inhibition of DYRK1beta (unknown origin)
BV-2 = test: Inhibition of LPS-induced ROS production in mouse BV-2 cells at 5 uM incubated for 1 hr followed by LPS stimulation and measured after 24 hrs by DCFH-DA staining based inverted fluorescence microscopic analysis; assay type: functional, cell-based; settings: time 25.0 hrs
Homo sapiens [21] = species on record: Homo sapiens; test: Selectivity for GSK3 (unknown origin) over JNK2 (unknown origin)
[22] = target: Cyclin-dependent kinase 2 (Homo sapiens) (UniProt P24941); test: Inhibition of CDK2 (unknown origin) at 300 nM relative to control
Homo sapiens [23] = species on record: Homo sapiens; test: Selectivity for GSK3 (unknown origin) over MAPK p38 beta (unknown origin)
Homo sapiens [24] = species on record: Homo sapiens; test: Selectivity for GSK3 (unknown origin) over CDK1 (unknown origin)
Acetylcholinesterase = Acetylcholinesterase (Homo sapiens, UniProt P22303); test: Inhibition of human AChE using acetylthiocholine iodide as substrate preincubated with enzyme for 1 min followed by substrate addition and measured after 10 mins by Ellman's method
Cholinesterase = Cholinesterase (Homo sapiens, UniProt P06276); test: Inhibition of human BuChE using butyrylthiocholine iodide as substrate preincubated with enzyme for 1 min followed by substrate addition and measured after 10 mins by Ellman's method
Homo sapiens [25] = species on record: Homo sapiens; test: Selectivity for GSK3 (unknown origin) over CDK4 (unknown origin)
[26] = target: T3, Dual specificity tyrosine-phosphorylation-regulated kinase 1B; test: Inhibition of DYRK1beta (unknown origin) at 300 nM relative to control
Homo sapiens [27] = species on record: Homo sapiens; test: Selectivity for GSK3 (unknown origin) over CDK9 (unknown origin)
N2a = test: Effect on tau protein expression in mouse N2a cells transfected with human tau protein at 5 to 15 uM incubated for 1 hr followed by okadaid-acid addition and measured after 5 hrs by Western blot analysis; assay type: functional, cell-based; settings: dose 5-15 µM, time 6.0 hrs
[28] = target: Mitogen-activated protein kinase 10 (Homo sapiens) (UniProt P53779); test: Inhibition of JNK3 (unknown origin) at 300 nM relative to control
[29] = target: Mitogen-activated protein kinase 9 (Homo sapiens) (UniProt P45984); test: Inhibition of JNK2 (unknown origin) at 300 nM relative to control
Homo sapiens [30] = species on record: Homo sapiens; test: Selectivity for GSK3 (unknown origin) over CDK2 (unknown origin)
Homo sapiens [31] = species on record: Homo sapiens; test: Selectivity for GSK3 (unknown origin) over ERK1 (unknown origin)
Homo sapiens [32] = species on record: Homo sapiens; test: Selectivity for GSK3 (unknown origin) over MAPK p38 delta (unknown origin)
[33] = target: T2, Glycogen synthase kinase-3 beta; test: biochemical
Target sequence in this assay (P49841 whole entry): as the sequence (P49841 whole entry, looked up) above
Description: Inhibition of recombinant human N-terminal His6-tagged GSK-3beta H350L mutant expressed in baculovirus infected Sf21 cells using GSM as substrate incubated for 30 mins in presence of ATP by kinase-glo luminescence assay

[34] = target: Glycogen synthase kinase-3 beta (Mus musculus) (UniProt Q9WV60); test: Inhibition of GSK3beta in mouse N2a cells overexpressing human tau protein assessed as phosphorylated tau Ser396 residue level at 15 uM incubated for 1 hr followed by okadaid-acid addition and measured after 5 hrs by Western blot analysis relative to control; assay type: cell-based; parameters: scale not given: the % may be the effect or the level left; settings: time 6.0 hrs
[35] = target: Mitogen-activated protein kinase 1 (Homo sapiens) (UniProt P28482); test: Inhibition of ERK2 (unknown origin) at 300 nM relative to control

Glycogen synthase kinase-3 beta (Mus musculus), sequence (Q9WV60 whole entry, looked up): as the sequence (P49841 whole entry, looked up) above, with T390P, T392A, A400T, T402A counted along it
Glycogen synthase kinase-3 alpha (Homo sapiens), sequence (P49840 2-483 limits assumed): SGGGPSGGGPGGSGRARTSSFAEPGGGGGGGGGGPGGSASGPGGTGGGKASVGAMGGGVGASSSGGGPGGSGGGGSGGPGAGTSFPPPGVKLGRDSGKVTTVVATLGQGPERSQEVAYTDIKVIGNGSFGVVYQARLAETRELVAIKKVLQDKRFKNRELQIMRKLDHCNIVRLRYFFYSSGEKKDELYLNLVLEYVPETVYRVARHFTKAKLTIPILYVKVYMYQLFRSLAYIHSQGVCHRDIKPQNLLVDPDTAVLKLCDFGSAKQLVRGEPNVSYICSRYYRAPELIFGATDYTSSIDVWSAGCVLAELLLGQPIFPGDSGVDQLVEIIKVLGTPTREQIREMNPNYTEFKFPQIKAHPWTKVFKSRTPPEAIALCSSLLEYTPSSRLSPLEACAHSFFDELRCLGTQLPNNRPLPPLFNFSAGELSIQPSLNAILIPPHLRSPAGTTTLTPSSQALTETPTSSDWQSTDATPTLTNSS
Acetylcholinesterase, sequence (P22303 whole entry): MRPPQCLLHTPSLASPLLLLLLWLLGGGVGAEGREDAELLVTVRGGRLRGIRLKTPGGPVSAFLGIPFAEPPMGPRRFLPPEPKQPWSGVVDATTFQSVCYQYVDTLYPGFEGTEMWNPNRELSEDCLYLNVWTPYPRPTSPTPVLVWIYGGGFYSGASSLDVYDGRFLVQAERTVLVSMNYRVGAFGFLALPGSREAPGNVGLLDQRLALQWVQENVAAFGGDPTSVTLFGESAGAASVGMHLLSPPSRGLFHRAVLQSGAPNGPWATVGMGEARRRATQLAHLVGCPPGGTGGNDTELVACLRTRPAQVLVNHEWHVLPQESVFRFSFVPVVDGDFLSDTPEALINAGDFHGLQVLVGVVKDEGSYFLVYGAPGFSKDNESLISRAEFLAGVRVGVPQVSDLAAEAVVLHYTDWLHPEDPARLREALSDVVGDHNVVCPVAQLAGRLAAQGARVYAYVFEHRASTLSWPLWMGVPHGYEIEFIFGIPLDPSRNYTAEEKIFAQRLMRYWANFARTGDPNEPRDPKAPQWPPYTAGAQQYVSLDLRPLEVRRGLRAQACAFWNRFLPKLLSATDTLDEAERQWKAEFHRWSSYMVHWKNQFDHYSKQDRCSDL
Mitogen-activated protein kinase 14 (Homo sapiens), sequence (Q16539 whole entry): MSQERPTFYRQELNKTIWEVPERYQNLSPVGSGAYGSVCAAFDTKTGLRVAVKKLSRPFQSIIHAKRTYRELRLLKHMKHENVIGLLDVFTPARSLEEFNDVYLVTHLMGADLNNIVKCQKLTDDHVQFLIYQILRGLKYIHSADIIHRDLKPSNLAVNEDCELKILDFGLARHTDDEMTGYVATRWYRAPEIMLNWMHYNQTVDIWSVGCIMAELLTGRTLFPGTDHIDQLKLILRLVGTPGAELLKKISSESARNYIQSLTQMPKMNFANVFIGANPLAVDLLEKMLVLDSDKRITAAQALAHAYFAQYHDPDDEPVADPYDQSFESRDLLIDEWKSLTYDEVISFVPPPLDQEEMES
Cholinesterase, sequence (P06276 whole entry): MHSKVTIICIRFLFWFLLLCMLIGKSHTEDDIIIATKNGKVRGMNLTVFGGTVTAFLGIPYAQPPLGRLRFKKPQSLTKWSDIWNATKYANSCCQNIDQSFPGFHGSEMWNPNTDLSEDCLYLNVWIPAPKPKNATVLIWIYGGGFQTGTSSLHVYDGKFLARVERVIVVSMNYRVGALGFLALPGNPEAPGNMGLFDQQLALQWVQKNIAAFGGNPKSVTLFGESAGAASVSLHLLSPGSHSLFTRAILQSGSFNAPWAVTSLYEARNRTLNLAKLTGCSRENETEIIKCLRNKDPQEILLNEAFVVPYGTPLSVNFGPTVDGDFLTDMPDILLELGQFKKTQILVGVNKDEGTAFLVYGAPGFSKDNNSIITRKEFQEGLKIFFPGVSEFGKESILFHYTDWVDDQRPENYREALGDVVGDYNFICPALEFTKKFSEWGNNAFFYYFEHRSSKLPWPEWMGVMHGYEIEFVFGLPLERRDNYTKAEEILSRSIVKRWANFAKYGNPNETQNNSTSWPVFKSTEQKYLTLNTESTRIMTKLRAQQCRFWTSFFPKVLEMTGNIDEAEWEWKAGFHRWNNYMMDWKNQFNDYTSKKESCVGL
Mitogen-activated protein kinase 9 (Homo sapiens), sequence (P45984 whole entry, looked up): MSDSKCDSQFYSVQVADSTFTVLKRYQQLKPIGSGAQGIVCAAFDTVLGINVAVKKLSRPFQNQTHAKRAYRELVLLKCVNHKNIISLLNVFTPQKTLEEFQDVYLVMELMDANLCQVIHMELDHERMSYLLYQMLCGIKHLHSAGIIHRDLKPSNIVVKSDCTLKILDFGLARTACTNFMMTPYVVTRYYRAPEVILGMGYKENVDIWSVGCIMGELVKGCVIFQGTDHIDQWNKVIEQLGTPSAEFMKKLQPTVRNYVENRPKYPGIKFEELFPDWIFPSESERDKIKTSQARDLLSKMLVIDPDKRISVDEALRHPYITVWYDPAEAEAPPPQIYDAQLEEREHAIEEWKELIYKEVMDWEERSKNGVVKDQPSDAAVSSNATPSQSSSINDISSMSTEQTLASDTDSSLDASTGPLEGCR
Mitogen-activated protein kinase 10 (Homo sapiens), sequence (P53779 whole entry): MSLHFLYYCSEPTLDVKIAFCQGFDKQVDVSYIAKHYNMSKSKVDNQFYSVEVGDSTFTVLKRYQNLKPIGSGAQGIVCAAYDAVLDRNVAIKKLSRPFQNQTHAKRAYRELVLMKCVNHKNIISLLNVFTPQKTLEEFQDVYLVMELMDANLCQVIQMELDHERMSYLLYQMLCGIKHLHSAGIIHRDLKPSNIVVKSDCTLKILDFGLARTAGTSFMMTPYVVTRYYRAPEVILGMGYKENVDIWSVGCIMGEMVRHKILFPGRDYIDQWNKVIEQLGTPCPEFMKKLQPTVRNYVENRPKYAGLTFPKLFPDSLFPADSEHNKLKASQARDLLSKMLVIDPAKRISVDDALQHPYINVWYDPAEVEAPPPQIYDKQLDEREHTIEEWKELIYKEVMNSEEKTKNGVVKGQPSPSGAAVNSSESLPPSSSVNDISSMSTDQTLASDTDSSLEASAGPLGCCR
Mitogen-activated protein kinase 12 (Homo sapiens), sequence (P53778 whole entry): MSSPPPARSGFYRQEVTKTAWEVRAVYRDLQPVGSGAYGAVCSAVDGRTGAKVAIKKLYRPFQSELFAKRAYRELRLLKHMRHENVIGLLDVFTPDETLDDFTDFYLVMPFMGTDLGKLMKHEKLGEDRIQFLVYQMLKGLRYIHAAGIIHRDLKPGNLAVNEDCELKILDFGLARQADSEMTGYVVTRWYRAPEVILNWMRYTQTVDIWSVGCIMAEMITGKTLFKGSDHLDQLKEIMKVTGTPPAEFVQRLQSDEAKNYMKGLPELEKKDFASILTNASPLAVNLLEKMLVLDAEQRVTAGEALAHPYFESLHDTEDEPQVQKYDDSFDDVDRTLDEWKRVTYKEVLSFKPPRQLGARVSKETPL
Mitogen-activated protein kinase 3 (Homo sapiens), sequence (P27361 whole entry): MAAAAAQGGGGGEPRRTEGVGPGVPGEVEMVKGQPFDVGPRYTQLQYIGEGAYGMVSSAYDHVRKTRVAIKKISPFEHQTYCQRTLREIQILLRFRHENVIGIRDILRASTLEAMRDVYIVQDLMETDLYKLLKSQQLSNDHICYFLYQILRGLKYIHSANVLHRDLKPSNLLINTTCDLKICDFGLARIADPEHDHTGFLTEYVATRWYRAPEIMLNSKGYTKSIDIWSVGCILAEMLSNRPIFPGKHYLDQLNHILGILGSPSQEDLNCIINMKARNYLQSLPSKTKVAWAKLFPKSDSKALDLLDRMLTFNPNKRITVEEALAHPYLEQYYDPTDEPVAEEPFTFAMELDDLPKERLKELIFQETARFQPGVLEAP

CNC(=O)c1sc(-c2ccnc(NC(=O)CNCCNc3c4c(nc5ccccc35)CCCC4)c2)nc1OCC1CC1
Selectivity ratio (Homo sapiens [1]): 100
inhibition [2]: 91.1%
inhibition [3]: 20.6%
Activity [4]: 25.8%
inhibition [5]: 3.07%
inhibition [6]: 49%
inhibition [7]: 7.64%
Selectivity ratio (Homo sapiens [8]): 100
Selectivity ratio (Homo sapiens [9]): 100
Activity [10]: Non-Toxic
Activity (Mus musculus): Active
Selectivity ratio (Homo sapiens [11]): 100
Selectivity ratio (Homo sapiens [12]): 100
inhibition [13]: 83.7%
IC50 [14]: 28.3 nM
Papp at 20 h, 100 ug/ml (in vitro): 6.9 ×10⁻⁶ cm/s
inhibition [15]: 13.1%
inhibition [16]: 86.3%
Activity [17]: Non-Toxic
inhibition [18]: 5.21%
Selectivity ratio (Homo sapiens [19]): 100
IC50 [20]: 120 nM
inhibition (BV-2): Active
Selectivity ratio (Homo sapiens [21]): 100
inhibition [22]: 3.8%
Selectivity ratio (Homo sapiens [23]): 100
Selectivity ratio (Homo sapiens [24]): 100
IC50 (Acetylcholinesterase): 1.2 nM
IC50 (Cholinesterase): 150 nM
Selectivity ratio (Homo sapiens [25]): 100
inhibition [26]: 67.9%
Selectivity ratio (Homo sapiens [27]): 100
Activity (N2a): inactive
inhibition [28]: 16.7%
inhibition [29]: 29.8%
Selectivity ratio (Homo sapiens [30]): 100
Selectivity ratio (Homo sapiens [31]): 100
Selectivity ratio (Homo sapiens [32]): 100
IC50 [33]: 22 nM
Activity [34]: 17%
inhibition [35]: 9.78%
